Laboratory results reported in patent US8188078B2 (Sanofi-Aventis, priority 2007, dated 2012).

Tests used:
RON = RON (Homo sapiens, UniProt Q04912); test: Test B: HTRF RON test in 96-well format; format: biochemical
In short: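 RON 5 nM pre-incubated 30 min at RT with compound (0.17 nM–10 μM final, 3% DMSO) in MOPS 10 mM pH 7, DTT, Tween 20. Reaction with biotinylated poly-(GAT) 1 μg/ml, ATP 10 μM, MgCl2 5 mM, 30 min RT. Eu-anti-pTyr/streptavidin-XL665 HTRF, 665/620 ratio gives % inhibition, IC50.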

MET = biological target: T1, MET (Homo sapiens, UniProt P08581); test: Test C: inhibition of the autophosphorylation of MET, ELISA technique (pppY1230, 1234, 1235), MKN45 cells; format: cell-based
T1 construct: endogenous in cells; host or cells: MKN45 cells
T1 sequence (P08581 25-1390): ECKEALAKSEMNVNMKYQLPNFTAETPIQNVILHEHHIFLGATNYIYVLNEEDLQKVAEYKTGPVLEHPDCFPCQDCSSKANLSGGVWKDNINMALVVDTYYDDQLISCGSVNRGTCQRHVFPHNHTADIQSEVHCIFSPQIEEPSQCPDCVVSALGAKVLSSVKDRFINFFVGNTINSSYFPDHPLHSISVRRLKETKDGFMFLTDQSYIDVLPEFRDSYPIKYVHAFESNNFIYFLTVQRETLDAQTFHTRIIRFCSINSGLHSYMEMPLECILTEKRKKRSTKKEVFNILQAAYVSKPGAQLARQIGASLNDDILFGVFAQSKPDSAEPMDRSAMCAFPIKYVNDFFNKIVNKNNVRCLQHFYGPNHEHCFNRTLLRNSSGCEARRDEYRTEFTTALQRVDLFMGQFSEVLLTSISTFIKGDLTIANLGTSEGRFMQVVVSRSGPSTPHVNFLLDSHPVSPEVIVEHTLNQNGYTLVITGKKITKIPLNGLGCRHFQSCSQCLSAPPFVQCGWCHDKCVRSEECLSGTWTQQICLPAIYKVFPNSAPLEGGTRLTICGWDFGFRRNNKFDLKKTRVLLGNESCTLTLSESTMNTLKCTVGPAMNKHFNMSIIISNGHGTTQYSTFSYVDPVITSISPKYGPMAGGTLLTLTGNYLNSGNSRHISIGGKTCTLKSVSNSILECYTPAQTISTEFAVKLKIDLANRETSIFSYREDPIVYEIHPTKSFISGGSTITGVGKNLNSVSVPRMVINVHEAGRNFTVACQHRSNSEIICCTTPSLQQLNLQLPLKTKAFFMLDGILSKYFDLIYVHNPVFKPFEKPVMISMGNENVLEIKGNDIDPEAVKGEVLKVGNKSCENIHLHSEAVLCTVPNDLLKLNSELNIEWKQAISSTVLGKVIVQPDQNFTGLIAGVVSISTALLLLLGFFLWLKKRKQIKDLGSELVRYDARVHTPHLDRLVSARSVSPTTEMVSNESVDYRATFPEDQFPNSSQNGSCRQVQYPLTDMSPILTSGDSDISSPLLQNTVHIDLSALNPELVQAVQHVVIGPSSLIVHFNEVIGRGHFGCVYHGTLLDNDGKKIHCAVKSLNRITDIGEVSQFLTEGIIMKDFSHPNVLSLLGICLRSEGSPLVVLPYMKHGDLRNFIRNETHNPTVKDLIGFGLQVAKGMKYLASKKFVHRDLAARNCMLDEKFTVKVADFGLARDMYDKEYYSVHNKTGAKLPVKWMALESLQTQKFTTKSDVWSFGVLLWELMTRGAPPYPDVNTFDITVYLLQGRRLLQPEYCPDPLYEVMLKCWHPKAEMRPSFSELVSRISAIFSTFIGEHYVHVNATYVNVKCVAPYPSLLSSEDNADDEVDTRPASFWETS
In short: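 MKN45 cells adhered 24 h, then treated 1 h with compound at 6 concentrations in duplicate, final range 10000 to 30 nM. Lysates assayed by phospho-MET (pY1230/1234/1235) sandwich ELISA with HRP chromogen read at 450 nm.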

Sequence of RON (Q04912 25-1400): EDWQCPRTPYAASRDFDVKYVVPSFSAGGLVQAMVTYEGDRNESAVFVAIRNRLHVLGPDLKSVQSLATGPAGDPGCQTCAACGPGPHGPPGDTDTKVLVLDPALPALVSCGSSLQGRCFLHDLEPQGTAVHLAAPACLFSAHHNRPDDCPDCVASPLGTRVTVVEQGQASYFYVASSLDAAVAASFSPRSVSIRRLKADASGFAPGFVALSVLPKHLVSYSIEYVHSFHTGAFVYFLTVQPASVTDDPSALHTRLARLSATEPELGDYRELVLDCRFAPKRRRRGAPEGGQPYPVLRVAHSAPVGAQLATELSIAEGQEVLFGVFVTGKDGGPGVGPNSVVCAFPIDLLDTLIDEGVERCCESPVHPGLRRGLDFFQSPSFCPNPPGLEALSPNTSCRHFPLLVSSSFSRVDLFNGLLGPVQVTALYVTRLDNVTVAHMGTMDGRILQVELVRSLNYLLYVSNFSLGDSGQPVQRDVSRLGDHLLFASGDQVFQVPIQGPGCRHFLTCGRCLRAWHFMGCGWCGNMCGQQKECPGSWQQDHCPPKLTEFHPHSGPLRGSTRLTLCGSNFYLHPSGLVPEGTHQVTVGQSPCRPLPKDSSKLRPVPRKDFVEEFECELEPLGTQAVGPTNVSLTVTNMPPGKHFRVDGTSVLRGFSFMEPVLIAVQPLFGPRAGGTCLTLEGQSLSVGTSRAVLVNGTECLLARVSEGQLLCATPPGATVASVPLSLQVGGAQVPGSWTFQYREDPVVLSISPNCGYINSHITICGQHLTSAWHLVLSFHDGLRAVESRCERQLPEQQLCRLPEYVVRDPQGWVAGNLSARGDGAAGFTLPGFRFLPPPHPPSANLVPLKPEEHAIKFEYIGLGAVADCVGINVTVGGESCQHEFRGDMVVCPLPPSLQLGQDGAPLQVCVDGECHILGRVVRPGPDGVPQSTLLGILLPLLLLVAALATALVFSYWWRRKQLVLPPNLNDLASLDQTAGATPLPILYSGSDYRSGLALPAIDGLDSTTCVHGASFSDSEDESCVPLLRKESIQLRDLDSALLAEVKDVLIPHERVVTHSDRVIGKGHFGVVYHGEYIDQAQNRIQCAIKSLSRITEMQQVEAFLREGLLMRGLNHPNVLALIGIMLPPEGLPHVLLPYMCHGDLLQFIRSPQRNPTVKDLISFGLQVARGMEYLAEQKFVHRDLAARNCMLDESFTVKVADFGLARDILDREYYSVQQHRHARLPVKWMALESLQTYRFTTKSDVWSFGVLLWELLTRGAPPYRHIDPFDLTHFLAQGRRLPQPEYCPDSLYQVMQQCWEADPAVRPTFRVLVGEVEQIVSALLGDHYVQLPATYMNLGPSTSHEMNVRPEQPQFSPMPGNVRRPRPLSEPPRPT

Row | Compound | IC50 (RON) [nM] | IC50 (MET) [nM] | melting point [°C]
1 | CC(Oc1cc2sc(NC(=O)NCCN)nc2cc1F)c1c(Cl)ccc(F)c1Cl (stereo not drawn) [Example 88, 1-(2-aminoethyl)-3-{6-[1-(2,6-dichloro-3-fluorophenyl)ethoxy]-5-fluoro-1,3-benzothiazol-2-yl}urea] | 500 to 10000 | < 500 | 178
2 | CCN(CC)CCCNC(=O)Nc1nc2ccc(OC(C)c3c(Cl)ccc(F)c3Cl)cc2s1 (stereo not drawn) [Example 83, 1-{6-[1-(2,6-dichloro-3-fluorophenyl)ethoxy]-1,3-benzothiazol-2-yl}-3-[3-(diethylamino)propyl]urea] | 500 to 10000 | < 500 | –
3 | CC(Oc1cc2sc(NC(=O)NCCC3CCCN3C)nc2cc1F)c1c(Cl)ccc(F)c1Cl (stereo not drawn) [Example 79, 1-{6-[1-(2,6-dichloro-3-fluorophenyl)ethoxy]-5-fluoro-1,3-benzothiazol-2-yl}-3-[2-(1-methylpyrrolidin-2-yl)ethyl]urea] | < 500 | < 500 | 78 to 89
4 | CC(Oc1cc2sc(NC(=O)NCCN3CCN(C)CC3)nc2cc1F)c1c(Cl)ccc(F)c1Cl (stereo not drawn) [Example 75, 1-{6-[1-(2,6-dichloro-3-fluorophenyl)ethoxy]-5-fluoro-1,3-benzothiazol-2-yl}-3-[2-(4-methylpiperazin-1-yl)ethyl]urea] | < 500 | < 500 | 131 to 134
5 | O=C(Nc1nc2ccc(OCc3c(Cl)cccc3Cl)cc2[nH]1)C1CC1 [Example 7, N-{6-[(2,6-dichlorobenzyl)oxy]-1H-benzimidazol-2-yl}cyclopropane carboxamide] | 500 to 10000 | 500 to 10000 | 133 to 135
6 | CCN(CC)CCNC(=O)Nc1nc2ccc(OC(C)c3c(Cl)ccc(F)c3Cl)cc2s1 (stereo not drawn) [Example 82, 1-{6-[1-(2,6-dichloro-3-fluorophenyl)ethoxy]-1,3-benzothiazol-2-yl}-3-[2-(diethylamino)ethyl]urea] | 500 to 10000 | < 500 | 74 to 83
7 | CC(Oc1cc2sc(NC(=O)NCCN3CCN(C)CC3)nc2cc1F)c1c(Cl)ccc(F)c1Cl (single isomer, unassigned) [Example 76, 1-{6-[(1R*)-1-(2,6-dichloro-3-fluorophenyl)ethoxy]-5-fluoro-1,3-benzothiazol-2-yl}-3-[2-(4-methylpiperazin-1-yl)ethyl]urea] | < 500 | < 500 | –
8 | CC(Oc1cc2[nH]c(NC(=O)NCCN3CCOCC3)nc2cc1F)c1c(Cl)ccc(F)c1Cl (stereo not drawn) [Example 6, 1-{6-[1-(2,6-dichloro-3-fluorophenyl)ethoxy]-5-fluoro-1H-benzimidazol-2-yl}-3-(2-morpholin-4-ylethyl)urea] | < 500 | < 500 | 190 to 192
9 | COCCNC(=O)Nc1nc2cc(F)c(OC(C)c3c(Cl)ccc(F)c3Cl)cc2s1 (stereo not drawn) [Example 81, 1-{6-[1-(2,6-dichloro-3-fluorophenyl)ethoxy]-5-fluoro-1,3-benzothiazol-2-yl}-3-(2-methoxyethyl)urea] | < 500 | < 500 | 176 to 179
10 | CC(Oc1cc2sc(NC(=O)NCCN(C)Cc3ccccc3)nc2cc1F)c1c(Cl)ccc(F)c1Cl (stereo not drawn) [Example 94, 1-{2-[benzyl(methyl)amino]ethyl}-3-{6-[1-(2,6-dichloro-3-fluorophenyl)ethoxy]-5-fluoro-1,3-benzothiazol-2-yl}urea] | 500 to 10000 | 500 to 10000 | 142 to 146
11 | CC(Oc1cc2sc(NC(=O)NCCN3CCCC3)nc2cc1F)c1c(Cl)ccc(F)c1Cl (stereo not drawn) [Example 84, 1-{6-[1-(2,6-dichloro-3-fluorophenyl)ethoxy]-5-fluoro-1,3-benzothiazol-2-yl}-3-[2-(pyrrolidin-1-yl)ethyl]urea] | 500 to 10000 | < 500 | 178 to 190
12 | CC(Oc1cc2sc(NC(=O)NCCOCc3ccccc3)nc2cc1F)c1c(Cl)ccc(F)c1Cl (stereo not drawn) [Example 97, 1-[2-(benzyloxy)ethyl]-3-{6-[1-(2,6-dichloro-3-fluorophenyl)ethoxy]-5-fluoro-1,3-benzothiazol-2-yl}urea] | 500 to 10000 | 500 to 10000 | 170
13 | CC(Oc1cc2sc(NC(=O)NCCO)nc2cc1F)c1c(Cl)ccc(F)c1Cl (stereo not drawn) [Example 98, 1-{6-[1-(2,6-dichloro-3-fluorophenyl)ethoxy]-5-fluoro-1,3-benzothiazol-2-yl}-3-(2-hydroxyethyl)urea] | < 500 | < 500 | 198
14 | CC(Oc1cc2sc(NC(=O)NCCN3CCN(C)CC3)nc2cc1F)c1c(Cl)ccc(F)c1Cl (single isomer, unassigned) [Example 77, 1-{6-[(1S*)-1-(2,6-dichloro-3-fluorophenyl)ethoxy]-5-fluoro-1,3-benzothiazol-2-yl}-3-[2-(4-methylpiperazin-1-yl)ethyl]urea] | 500 to 10000 | 500 to 10000 | –
15 | CNCCNC(=O)Nc1nc2cc(F)c(OC(C)c3c(Cl)ccc(F)c3Cl)cc2s1 (stereo not drawn) [Example 96, 1-{6-[1-(2,6-dichloro-3-fluorophenyl)ethoxy]-5-fluoro-1,3-benzothiazol-2-yl}-3-[2-(methylamino)ethyl]urea] | < 500 | < 500 | 173 to 188
16 | CC(Oc1cc2sc(NC(=O)NCCN(C)C(=O)OC(C)(C)C)nc2cc1F)c1c(Cl)ccc(F)c1Cl (stereo not drawn) [Example 95] | 500 to 10000 | 500 to 10000 | –
17 | CC(Oc1cc2sc(NC(=O)NCCN)nc2cc1F)c1c(Cl)ccc(F)c1Cl (single isomer, unassigned) [Example 89, 1-(2-aminoethyl)-3-{6-[(1R*)-1-(2,6-dichloro-3-fluorophenyl)ethoxy]-5-fluoro-1,3-benzothiazol-2-yl}urea] | 500 to 10000 | < 500 | –
18 | CC(Oc1cc2sc(NC(=O)NCCCN3CCCC3=O)nc2cc1F)c1c(Cl)ccc(F)c1Cl (stereo not drawn) [Example 78, 1-{6-[1-(2,6-dichloro-3-fluorophenyl)ethoxy]-5-fluoro-1,3-benzothiazol-2-yl}-3-[3-(2-oxopyrrolidin-1-yl)propyl]urea] | < 500 | < 500 | 191 to 195
19 | CC(Oc1cc2sc(NC(=O)NCCN3CCCC3)nc2cc1F)c1c(Cl)ccc(F)c1Cl (single isomer, unassigned) [Example 85, 1-{6-[(1R*)-1-(2,6-dichloro-3-fluorophenyl)ethoxy]-5-fluoro-1,3-benzothiazol-2-yl}-3-[2-(pyrrolidin-1-yl)ethyl]urea] | < 500 | < 500 | –
